Assay: Solubility of L-carnitine at 20° C.
Type: physicochemical
Conditions: in 100 g of solution
Text: This applies, furthermore, without taking into account the amount of water which is required for dissolving magnesium aspartate hydrochloride.

## C[N+](C)(C)CC(O)CC(=O)[O-] [L-carnitine, 3-hydroxy-4-(trimethylammonio)butyro-betaine]
  amount of L-carnitine that can be dissolved in 100 g of an aqueous solution which contains 51% by weight magnesium aspartate hydrochloride: up to 150 g
